Assays:
[1] = system: SnapTag-H2B; assay: Nuclear labeling of live HeLa cells expressing SnapTag-H2B; type: cell-based
Excerpt: In this Example, an azetidinyl-coumarin label was used for cellular imaging. The performance of a commercial SnapTag ligand (i.e., Snap Cell 430) was compared to a novel azetidinyl derivative (Example 52), which was synthesized from a 7-azetidinyl-coumarin-3-carboxylic acid. Under identical transient transfection, labeling, and imaging conditions, H2B-SnapTag-expressing cells were stained with the red fluorescent nuclear stain DRAQ5 and either Snap Cell 430 or the azetidinyl ligand. Using the DRAQ5 staining as a spatial reference (FIGS. 26 and 27) the intensity of individual nuclei labeled by either SnapTag ligand was measured.
(§1) HeLa cells (ATCC) and U2OS cells (ATCC) were cultured in Dulbecco's modified eagle medium (DMEM; Life Technologies) supplemented with 10% v/v fetal bovine serum (FBS; Life Technologies), 1 mM GlutaMax (Life Technologies), and 1 mM sodium pyruvate (Sigma) and maintained at 37° C. in a humidified 5% v/v CO2 environment. These cell lines undergo regular mycoplasma testing by the Janelia Cell Culture Facility. […]
Three separate systems were used to acquire microscopic images. […] Other live-cell single super-resolution imaging experiments were recorded on a custom-built three-camera RAMM frame (ASI) microscope using an 1.4 NA PLAPON 60×OSC objective (Olympus), and a 300 mm focal length tube lens (LAO-300.0, Melles Griot), resulting in 100× overall magnification. […]

[2] = system: HaloTag; assay: Labeling kinetics and brightness of HaloTag ligand conjugates in vitro; type: biochemical; conditions: compared with TMR and Cy3 HaloTag ligands
Excerpt: (§2) The labeling kinetics of TMR and JF549 HaloTag ligands were compared with a novel Cy3 HaloTag ligand while measuring the brightness and photon yield of the resulting conjugates.

[3] = system: HaloTag-histone 2B (H2B) fusion; assay: Live-cell confocal labeling of HaloTag-H2B; type: cell-based; conditions: live cells expressing HaloTag-H2B
Protocol: as §2
as §1, with “Facility. Cells were transfected with HaloTag-H2B, HaloTag-tubulin, SnapTag-TetR, or SnapTag-H2B using an Amaxa Nucleofector (Lonza).” for “Facility.”
(§3) Three separate systems were used to acquire microscopic images. […] Other live-cell single super-resolution imaging experiments were recorded on a custom-built three-camera RAMM frame (ASI) microscope using an 1.4 NA PLAPON 60×OSC objective (Olympus), and a 300 mm focal length tube lens (LAO-300.0, Melles Griot), resulting in 100× overall magnification. […] Fluorescence was detected with a back-illuminated EMCCD camera (Andor Technology, Ixon Ultra DU-897U-CSO-EXF, 17 MHz EM amplifier), which was controlled through Micro-Manager (1.4.17).

[4] = Absorption and fluorescence spectroscopy of dyes; type: physicochemical
Protocol: Phosphate buffered saline (PBS) was at pH 7.4 unless otherwise noted.
Spectroscopy was performed using 1-cm path length, 3.5-mL quartz cuvettes from Starna Cells or 1-cm path length, 1.0-mL quartz microcuvettes from Hellma. All measurements were taken at ambient temperature (22±2° C.) in 10 mM HEPES, pH 7.3 buffer unless otherwise noted. Absorption spectra were recorded on a Cary Model 100 spectrometer (Varian); reported values for extinction coefficients (ε) are averages (n=3). Fluorescence spectra were recorded on a Cary Eclipse fluorometer (Varian). Normalized spectra are shown for clarity.

[5] = Quantum yield measurement (Quantaurus-QY spectrometer); type: physicochemical
Protocol: All reported quantum yield values were measured in under identical conditions using a Quantaurus-QY spectrometer (C11374, Hamamatsu). Measurements were carried out using dilute samples (A<0.1) and self-absorption corrections were performed using the instrument software. Reported values are averages (n=3).

[6] = Fluorescence lifetime measurement
Protocol: For fluorescence lifetime measurements, a pulse picker (Model 350-160, ConOptics) was placed in the laser beam to reduce the pulse frequency from 80 MHz to 20 MHz. Samples (2 μM dye diluted in 50 mM HEPES, pH 7.2, H2O, or CH3OH) were excited at 830 nm laser wavelength and 6 mW laser power. The emitted light was collected by the fast-timing APD and fed to the single-photon counting board (TimeHarp200; PicoQuant). Timing pulses were obtained from a PIN diode (DET01CFC; ThorLabs) monitoring the 20 MHz pulse train. The temporal impulse response of the system was determined by second harmonic generation of laser pulses using a thin nonlinear crystal in place of a dye sample. The lifetime decay data was fit to a single exponential decay function using a custom MATLAB program.

[7] = system: HaloTag protein; conditions: ligand 5 μM, 10 mM HEPES pH 7.3 with 0.1 mg·mL^−1 CHAPS
Protocol: To measure fluorescence of HaloTag ligands upon reaction with HaloTag protein, absorbance measurements were performed in 1 mL quartz cuvettes. HaloTag protein was used as a 100 μM solution in 75 mM NaCl, 50 mM TRIS. HCl, pH 7.4 with 50% v/v glycerol (TBS-glycerol). HaloTag ligands of JF646 and SiTMR (5 μM) were dissolved in 10 mM HEPES, pH 7.3 containing 0.1 mg·mL^−1 CHAPS. An aliquot of HaloTag protein (1.5 equiv) or an equivalent volume of TBS-glycerol blank was added and the resulting mixture was incubated until consistent absorbance signal was observed (˜30 min). […] Absorbance scans are averages (n=2).

[8] = system: HaloTag-H2B; assay: No wash wide-field imaging of live HeLa cells expressing HaloTag-H2B; type: cell-based; conditions: ligand 100 nM
Protocol: Next, “no wash” imaging experiments were performed using cells expressing the HaloTag-H2B fusion.
as §1, with “Facility. Cells were transfected with HaloTag-H2B, HaloTag-tubulin, SnapTag-TetR, or SnapTag-H2B using an Amaxa Nucleofector (Lonza). Before the imaging experiments, transfected cells were transferred onto a No. 1 coverslip (Warner Instruments) that was cleaned by Piranha solution (3:1 v/v mixture of concentrated H2SO4 and 30% v/v hydrogen peroxide).” for “Facility.”
as §3

## Nc1nc(OCc2ccc(CNC(=O)c3cc4ccc(N5CCC5)cc4oc3=O)cc2)c2nc[nH]c2n1 [Example 52, N-(4-(((2-Amino-9H-purin-6-yl)oxy)methyl)benzyl)-7-(azetidin-1-yl)-2-oxo-2H-chromene-3-carboxamide]
[1]; DRAQ5 reference
  nuclear fluorescence intensity: brighter nuclear labeling
[1]; n=50
  median nuclear intensity relative to cells labeled with the commercial compound: five-fold higher

## O=C(NCCOCCOCCCCCCCl)c1ccc(C(=O)[O-])c(-c2c3ccc(=[N+]4CCC4)cc-3oc3cc(N4CCC4)ccc23)c1 [Example 21, 4-((2-(2-((6-Chlorohexyl)oxy)ethoxy)ethyl)carbamoyl)-2-(3,6-di(azetidin-1-yl)xanthylium-9-yl)benzoate]
[2]
  labeling kinetics: comparable labeling kinetics to the TMR ligand
[3]
  live-cell labeling / cell permeability: efficiently crossed the membrane of live cells and selectively labeled the HaloTag protein

## Cl.N=c1ccc2c(-c3ccccc3C(=O)O)c3ccc(N)cc3oc-2c1 [rhodamine 110, reference compound]
[4]; Table 2, 10 mM HEPES pH 7.3
  ε: 76,000 M^−1 cm^−1
  λem: 520 nm
  λmax: 497 nm
[4]; aqueous buffer
  ε (extinction coefficient): 76000 M⁻¹ cm⁻¹
[5]; Table 2, 10 mM HEPES pH 7.3
  ϕ: 0.88
[5]; aqueous buffer
  ϕ (quantum yield): 0.88
[6]
  τ (fluorescence lifetime): 3.3 ns
[6]; Table 2, 10 mM HEPES pH 7.3 per table footnote
  τ: 3.26 ns

## C[Si]1(C)C2=CC(=[N+]3CCC3)C=CC2=C(c2cc(C(=O)NCCOCCOCCCCCCCl)ccc2C(=O)[O-])c2ccc(N3CCC3)cc21 [Example 35, 4-((2-(2-((6-Chlorohexyl)oxy)ethoxy)ethyl)carbamoyl)-2-(3,7-di(azetidin-1-yl)-5,5-dimethyldibenzo[b,e]silin-10-ylium-10(5H)-yl)benzoate]
[7]
  increase in absorbance upon reaction with excess HaloTag protein: 21 fold
[8]
  nonspecific staining / background: lower nonspecific staining

Source: US10161932B2, “Azetidine-substituted fluorescent compounds” (HOWARD HUGHES MEDICAL INSTITUTE, priority 2014, dated 2018)
